Test results published in patent publication US20140128402A1, “PHARMACEUTICAL COMBINATION” (IPCA Laboratories Limited, priority 2011, published 2014).

Experiments:
Assay type in all cases: in vivo, Wistar rats
[1] = tested on: STZ-induced diabetic rats; assay: Study No 2: biochemical parameters in STZ-induced diabetic rats; conditions: for Creatinine / HbA1c / Total Protein / Urea: after 28 days, oral
[2] = tested on: STZ-induced diabetic rats; assay: Study No 2: body weight, water intake and food intake in STZ-induced diabetic rats; conditions: for AVERAGE FOOD INTAKE / AVERAGE WATER INTAKE / Body Weight: oral
[3] = tested on: STZ induced diabetic rats; assay: Study No 2: blood glucose in STZ induced diabetic rats (HCQ with vildagliptin and saxagliptin); conditions: for Plasma glucose concentration: oral
Procedure: In this experiment 96 Wistar rats weighing 150-200 g of either sex were divided randomly into 16 groups consisting of 6 rats each. The study drugs were dissolved in water/suspended in vehicle [0.1% w/v suspension of Tween 80 and carboxymethylcellulose (CMC) in water] and administered orally for 28 days. Group 1 (normal vehicle control) consisted of normal rats that neither received Streptozotocin (STZ) nor any test drug; Group 2 served as Streptozotocin induced diabetic control [Diabetes was induced in rats by single administration of Streptozotocin (55 mg/kg/i.p.) dissolved in 0.1 M-citrate buffer, pH 4.5]. Forty-eight hours later, blood samples were collected and glucose levels were determined to confirm the development of diabetes. Only animals showing hyperglycaemia (blood glucose levels>250 mg/dl) were considered as diabetic and received vehicle orally; Group 3 was diabetic rats treated with hydroxychloroquine (HCQ) (22.5 mg/kg); Group 4 was diabetic rats treated with HCQ (45 mg/kg), Group 5 was diabetic rats treated with vildagliptin (VG) 6 mg/kg; Group 6 was diabetic rats treated with VG 12 mg/kg; Group 7 was diabetic rats treated with HCQ 22.5 mg/kg+VG 12 mg/kg and Group 8 was diabetic rats treated with combination of HCQ 45 mg/kg and VG 6 mg/kg; Group 9 was diabetic rats treated with saxagliptin (SG) 0.3 mg/kg; Group 10 was diabetic rats treated with Saxagliptin (SG) 0.6 mg/kg; Group 11 was diabetic rats treated with combination of HCQ 45 mg/kg+SG 0.3 mg/kg; Group 12 was diabetic rats treated with combination of HCQ 22.5 mg/kg+SG 0.6 mg/kg; Group 13 was diabetic rats treated with combination of HCQ 22.5 mg/kg and VG 6 mg/kg; Group 14 was diabetic rats treated with combination of HCQ 45 mg/kg and VG 12 mg/kg; Group 15 was diabetic rats treated with combination of HCQ 22.5 mg/kg+SG 0.3 mg/kg; Group 16 was diabetic rats treated with combination of HCQ 45 mg/kg+SG 0.6 mg/kg.
Blood glucose level was measured in normal and experimental rats at 0, 7th, 14th, 21st and 28th day of administration.

[4] = HCQ 22.5, VG 6, SG 0.3 mg/kg alone, HCQ+VG 22.5+6, HCQ+SG 22.5+0.3 mg/kg/day
[5] = HCQ 45, VG 12, SG 0.6 mg/kg alone, HCQ+VG 45+12, HCQ+SG 45+0.6 mg/kg/day
[6] = Day 0, HCQ 22.5, VG 6, SG 0.3 mg/kg alone, HCQ+VG 22.5+6, HCQ+SG 22.5+0.3 mg/kg/day
[7] = Day 0, HCQ 45, VG 12, SG 0.6 mg/kg alone, HCQ+VG 45+12, HCQ+SG 45+0.6 mg/kg/day
[8] = Day 7, HCQ 22.5, VG 6, SG 0.3 mg/kg alone, HCQ+VG 22.5+6, HCQ+SG 22.5+0.3 mg/kg/day
[9] = Day 7, HCQ 45, VG 12, SG 0.6 mg/kg alone, HCQ+VG 45+12, HCQ+SG 45+0.6 mg/kg/day
[10] = Day 14, HCQ 22.5, VG 6, SG 0.3 mg/kg alone, HCQ+VG 22.5+6, HCQ+SG 22.5+0.3 mg/kg/day
[11] = Day 14, HCQ 45, VG 12, SG 0.6 mg/kg alone, HCQ+VG 45+12, HCQ+SG 45+0.6 mg/kg/day
[12] = Day 21, HCQ 22.5, VG 6, SG 0.3 mg/kg alone, HCQ+VG 22.5+6, HCQ+SG 22.5+0.3 mg/kg/day
[13] = Day 21, HCQ 45, VG 12, SG 0.6 mg/kg alone, HCQ+VG 45+12, HCQ+SG 45+0.6 mg/kg/day
[14] = Day 28, HCQ 22.5, VG 6, SG 0.3 mg/kg alone, HCQ+VG 22.5+6, HCQ+SG 22.5+0.3 mg/kg/day
[15] = Day 28, HCQ 45, VG 12, SG 0.6 mg/kg alone, HCQ+VG 45+12, HCQ+SG 45+0.6 mg/kg/day
[16] = Day 0, HCQ 22.5, VG 6, SG 0.3 mg/kg alone, HCQ+VG 22.5+6, HCQ+SG 22.5+0.3 mg/kg
[17] = Day 0, HCQ 45, VG 12, SG 0.6 mg/kg alone, HCQ+VG 45+12, HCQ+SG 45+0.6 mg/kg
[18] = Day 7, HCQ 22.5, VG 6, SG 0.3 mg/kg alone, HCQ+VG 22.5+6, HCQ+SG 22.5+0.3 mg/kg
[19] = Day 7, HCQ 45, VG 12, SG 0.6 mg/kg alone, HCQ+VG 45+12, HCQ+SG 45+0.6 mg/kg
[20] = Day 14, HCQ 22.5, VG 6, SG 0.3 mg/kg alone, HCQ+VG 22.5+6, HCQ+SG 22.5+0.3 mg/kg
[21] = Day 14, HCQ 45, VG 12, SG 0.6 mg/kg alone, HCQ+VG 45+12, HCQ+SG 45+0.6 mg/kg
[22] = Day 21, HCQ 22.5, VG 6, SG 0.3 mg/kg alone, HCQ+VG 22.5+6, HCQ+SG 22.5+0.3 mg/kg
[23] = Day 21, HCQ 45, VG 12, SG 0.6 mg/kg alone, HCQ+VG 45+12, HCQ+SG 45+0.6 mg/kg
[24] = Day 28, HCQ 22.5, VG 6, SG 0.3 mg/kg alone, HCQ+VG 22.5+6, HCQ+SG 22.5+0.3 mg/kg
[25] = Day 28, HCQ 45, VG 12, SG 0.6 mg/kg alone, HCQ+VG 45+12, HCQ+SG 45+0.6 mg/kg
[26] = monotherapies, all the tested dose levels except HCQ (22.5 mg/kg), p≦0.05

Compound: N#C[C@@H]1C[C@@H]2C[C@@H]2N1C(=O)[C@@H](N)C12CC3CC(CC(O)(C3)C1)C2 [SG, Saxagliptin]
- Creatinine [1, 4]: 1.89 ± 0.23 mg/dL
- HbA1c [1, 4]: 10.79 ± 1.05 %
- Total Protein [1, 4]: 6.55 ± 0.37 gm/dl
- Urea [1, 4]: 22.74 ± 2.71 mg/dL
- Creatinine [1, 5]: 1.81 ± 0.27 mg/dL
- HbA1c [1, 5]: 9.65 ± 1.51 %
- Total Protein [1, 5]: 6.62 ± 0.49 gm/dl
- Urea [1, 5]: 21.26 ± 2.41 mg/dL
- AVERAGE FOOD INTAKE [2, 6]: 12.13 g
- AVERAGE WATER INTAKE [2, 6]: 23.71 mL
- Body Weight [2, 6]: 208.33 ± 6.15 g
- AVERAGE FOOD INTAKE [2, 7]: 12.45 g
- AVERAGE WATER INTAKE [2, 7]: 24.86 mL
- Body Weight [2, 7]: 211 ± 7.38 g
- AVERAGE FOOD INTAKE [2, 8]: 14.00 g
- AVERAGE WATER INTAKE [2, 8]: 21.12 mL
- Body Weight [2, 8]: 199.5 ± 7.69 g
- AVERAGE FOOD INTAKE [2, 9]: 14.45 g
- AVERAGE WATER INTAKE [2, 9]: 21.11 mL
- Body Weight [2, 9]: 203.17 ± 7.47 g
- AVERAGE FOOD INTAKE [2, 10]: 12.54 g
- AVERAGE WATER INTAKE [2, 10]: 21.67 mL
- Body Weight [2, 10]: 197.83 ± 8.06 g
- AVERAGE FOOD INTAKE [2, 11]: 12.00 g
- AVERAGE WATER INTAKE [2, 11]: 21.89 mL
- Body Weight [2, 11]: 201.17 ± 8.52 g
- AVERAGE FOOD INTAKE [2, 12]: 13.05 g
- AVERAGE WATER INTAKE [2, 12]: 25.17 mL
- Body Weight [2, 12]: 196.33 ± 8.36 g
- AVERAGE FOOD INTAKE [2, 13]: 13.26 g
- AVERAGE WATER INTAKE [2, 13]: 26.00 mL
- Body Weight [2, 13]: 199.83 ± 8.35 g
- AVERAGE FOOD INTAKE [2, 14]: 14.25 g
- AVERAGE WATER INTAKE [2, 14]: 25.19 mL
- Body Weight [2, 14]: 193.83 ± 8.13 g
- AVERAGE FOOD INTAKE [2, 15]: 14.00 g
- AVERAGE WATER INTAKE [2, 15]: 25.12 mL
- Body Weight [2, 15]: 198 ± 8.74 g
- Plasma glucose concentration [3, 16]: 288.83 ± 26.19 mg/dL
- Plasma glucose concentration [3, 17]: 285.5 ± 33.58 mg/dL
- Plasma glucose concentration [3, 18]: 246.5 ± 4.89 mg/dL
- Plasma glucose concentration [3, 19]: 146.5 ± 4.89 mg/dL
- Plasma glucose concentration [3, 20]: 226.33 ± 12.36 mg/dL
- Plasma glucose concentration [3, 21]: 138.5 ± 7.23 mg/dL
- Plasma glucose concentration [3, 22]: 194 ± 38.79 mg/dL
- Plasma glucose concentration [3, 23]: 137.5 ± 9.44 mg/dL
- Plasma glucose concentration [3, 24]: 194.17 ± 17.17 mg/dL
- Plasma glucose concentration [3, 25]: 161 ± 9.67 mg/dL

Compound: N#C[C@@H]1CCCN1C(=O)CNC12CC3CC(CC(O)(C3)C1)C2 [VG, Vildagliptin]
- Creatinine [1, 4]: 1.78 ± 0.14 mg/dL
- HbA1c [1, 4]: 10.76 ± 0.97 %
- Total Protein [1, 4]: 7.08 ± 0.55 gm/dl
- Urea [1, 4]: 21.48 ± 4.35 mg/dL
- Creatinine [1, 5]: 1.69 ± 0.21 mg/dL
- HbA1c [1, 5]: 9.97 ± 0.95 %
- Total Protein [1, 5]: 7.15 ± 0.19 gm/dl
- Urea [1, 5]: 20.23 ± 1.89 mg/dL
- HbA1c levels as compared to diabetic control ([1]; all tested doses, 28 days, p≦0.05): significantly (p≦0.05) reduced
- total protein level as compared to the diabetic control group ([1]; monotherapies at all doses, 28 days, p≦0.05): significant rise
- creatinine levels as compared to diabetic control group [1, 26]: significant reduction
- urea levels as compared to diabetic control group [1, 26]: significant reduction
- AVERAGE FOOD INTAKE [2, 6]: 11.40 g
- AVERAGE WATER INTAKE [2, 6]: 25.00 mL
- Body Weight [2, 6]: 195 ± 7.18 g
- AVERAGE FOOD INTAKE [2, 7]: 11.90 g
- AVERAGE WATER INTAKE [2, 7]: 24.35 mL
- Body Weight [2, 7]: 197.5 ± 6.35 g
- AVERAGE FOOD INTAKE [2, 8]: 13.00 g
- AVERAGE WATER INTAKE [2, 8]: 22.12 mL
- Body Weight [2, 8]: 179.17 ± 11.27 g
- AVERAGE FOOD INTAKE [2, 9]: 13.50 g
- AVERAGE WATER INTAKE [2, 9]: 22.19 mL
- Body Weight [2, 9]: 189 ± 3.52 g
- AVERAGE FOOD INTAKE [2, 10]: 12.10 g
- AVERAGE WATER INTAKE [2, 10]: 21.32 mL
- Body Weight [2, 10]: 182.83 ± 12.66 g
- AVERAGE FOOD INTAKE [2, 11]: 12.00 g
- AVERAGE WATER INTAKE [2, 11]: 22.11 mL
- Body Weight [2, 11]: 187.67 ± 6.38 g
- AVERAGE FOOD INTAKE [2, 12]: 12.90 g
- AVERAGE WATER INTAKE [2, 12]: 25.12 mL
- Body Weight [2, 12]: 185.67 ± 11.86 g
- AVERAGE FOOD INTAKE [2, 13]: 13.05 g
- AVERAGE WATER INTAKE [2, 13]: 26.13 mL
- Body Weight [2, 13]: 186.5 ± 8.83 g
- AVERAGE FOOD INTAKE [2, 14]: 14.33 g
- AVERAGE WATER INTAKE [2, 14]: 26.31 mL
- Body Weight [2, 14]: 189.5 ± 11.81 g
- AVERAGE FOOD INTAKE [2, 15]: 14.30 g
- AVERAGE WATER INTAKE [2, 15]: 25.71 mL
- Body Weight [2, 15]: 185.67 ± 11.69 g
- body weight as compared to diabetic control group ([2]; monotherapies, p≦0.05): reduction was significantly less
- Plasma glucose concentration [3, 16]: 296 ± 21.59 mg/dL
- Plasma glucose concentration [3, 17]: 288 ± 11.58 mg/dL
- Plasma glucose concentration [3, 18]: 242.17 ± 40.58 mg/dL
- Plasma glucose concentration [3, 19]: 227 ± 40.57 mg/dL
- Plasma glucose concentration [3, 20]: 199.83 ± 35.33 mg/dL
- Plasma glucose concentration [3, 21]: 188.83 ± 34.23 mg/dL
- Plasma glucose concentration [3, 22]: 191.33 ± 22.46 mg/dL
- Plasma glucose concentration [3, 23]: 173.5 ± 15.6 mg/dL
- Plasma glucose concentration [3, 24]: 182.67 ± 33.01 mg/dL
- Plasma glucose concentration [3, 25]: 167.5 ± 9.12 mg/dL
- blood glucose levels as compared to diabetic control group ([3]; alone at therapeutic equivalent doses, day 28): significant improvement
